Columns and labels:
MT-1 = test: in vivo antitumor test, human breast carcinoma MT-1 xenotransplanted in nude mice; conditions: MT-1, optimum dose 6.25 mg/Kg/inj i.p., qd 7, 14, 21
Procedure: (§1) In one typical set of experiments, four human breast carcinomas xenotransplanted into female Ncr: nu/nu (Taconic, Germantown, U.S.A.) or male Bom: NMRI-nu/nu mice (Bomholtgaard, Ry, Denmark) were used for the evaluation of antitumor activity. Mice weighing 20-25 g at the start of experiments were held under sterile conditions at 24-26° C., 50% relative humidity and 12 hours light-dark rhythm in laminar flow shelves. The animals received autoclaved food and bedding; the drinking water was filtered and acidified (pH4.0).
(§2) The following breast carcinoma cell lines were used: BO; MCF-7 (NCI, U.S.A.); MT-1 and MT-3. The tumors BO and MCF-7 are ER^+ models: the carcinomas MT-1 and MT-3 are ER^- ones. Tumors were transplanted subcutaneously (s.c.) as pieces (2×2 mm) into the left flank of 5-8 nude mice/experimental group. Drug treatment was initiated when the tumors reached a diameter of 4-5 mm. […] Tumor size was measured twice weekly with a caliper. Median tumor volume/group was related to the first treatment day and expressed as Relative Tumor Volume (RTV). For the estimation of toxicity, body weight was determined twice weekly and the mean percentage body weight change (BCC) was calculated. In one experiment blood was obtained from the retroorbital venous plexus of mice and blood cells were determined with a Coulter counter (Model T41).

MT-3 = test: in vivo antitumor test, human breast carcinoma MT-3 xenotransplanted in nude mice; conditions: MT-3, optimum dose 12.5 mg/Kg/inj i.p., qd 7, 14, 21
Procedure: as §1, §2

NCI HOP-92 = test: in vitro inhibition of growth of human lung cancer cell line NCI HOP-92 (Table 1); assay type: cell-based
Description: (§3) Tables 1 to 4 at the end of the present description show in vitro test results obtained in various sets of experiments for the cytotoxic activity of several of the benzazole compounds concerned, including also for reference results for the compound CJM 126 and comparative results for compound DF129, when tested against a range of tumor cell lines which includes ovarian, lung and certain colon and renal cancer cells from the National Cancer Institute (USA) collection. As usual the results are expressed in terms of IS50 values (concentration or dosage required to reduce cell growth or proliferation by 50%) calculated from dose-effect curves plotted for cultures of the cells in question.
(§4) In carrying out the in vitro studies, the cytotoxicity assays may be carried out by a method corresponding substantially to the following example: […]
(§5) On day 7 the test was terminated by the addition of 100 μl saline containing 0.002% w/v propidium iodide (Sigma), 0.3% drawing ink (Staedtler "Marsmatic 745"--Trade Mark) and 0.5% Triton X-100. The plates were kept at 4° C. overnight before reading on an inverted microscope equipped with an automated scanning stage. Fluorescence intensity was measured in arbitrary units by a photomultiplier. […]

OVCAR-3 = test: in vitro activity against human ovarian cell line OVCAR-3 (Table 2); assay type: cell-based
Description: as §3, §4, §5

OVCAR-5 = test: in vitro activity against human ovarian cell line OVCAR-5 (Table 2); assay type: cell-based
Description: as §3, §4, §5

SDBR3 = test: in vitro inhibitory activity against human breast tumour cell line SDBR3 (Table 4); assay type: cell-based; conditions: initial seeding density 2.5 × 10^2 cells/well
Description: as §3, §4, §5

[1] = marked * significant versus control

Row | SMILES | evaluation (MT-1) | RTV, relative tumor volume (T/C %) (MT-1; [1]) [%] | evaluation (MT-3) | RTV, relative tumor volume (T/C %) (MT-3; [1]) [%] | IC50 (NCI HOP-92) [µM] | IC50 (OVCAR-3) [µM] | IC50 (OVCAR-5) [µM] | IC50 (SDBR3) [µM]
1 | Cc1cc(-c2nc3ccccc3s2)ccc1N [DF203, 2-(4'-amino-3'-methylphenyl)benzothiazole] | ++ (T/C = 21-35%) | 34 | ++ (T/C = 21-35%) | 22 |  |  |  | 
2 | Nc1ccc(-c2nc3ccccc3s2)cc1I [DF129, 2-(4'-amino-3'-iodophenyl)benzothiazole] |  |  |  |  | < 0.01 | 0.6 | 0.3 | < 0.001
